Results reported in patent publication US9682062B2, “Pharmaceutical compositions and method for inhibiting angiogenesis” (Industrial Technology Research Institute, priority 2012, dated 2017).

Columns and labels:
[1] = test system: bFGF-induced corneal neovascularization; assay: Rat corneal neovascularization (corneal pocket) assay; assay type: in vivo, Sprague Dawley rats; details: pellet with 60 ng of bFGF plus 1 ug JC-5, day 7
Procedure: Pellets made of the hydron polymer (polyHEME) and a test drug or DMSO were implanted on the corneal surface of rats, and vascular formation thereof was observed.
A hydron polymer (polyHEME) was dissolved in absolute ethanol (12% w/v) in a rotator at 37° C. overnight, and then stored at room temperature before pellet making. Each pellet for the corneal pocket assay contained 60 ng of bFGF, or 1 ug JC-5 and 20 ug of sucralfate in 3 uL of casting gel, which was constituted as a 50:50 (vol/vol) mixture of hydron gel and factor-sucralfate-PBS. The casting gel was promptly pipetted onto an autoclaved, sterilized 20×20-mm piece of nylon mesh with an approximate pore size of 2×2 mm. The pellets were prepared the day before corneal surgery in a laminar flow hood under sterile conditions. Subsequently, the fibers of the mesh were pulled apart, and uniformly sized pellets of 2×2×0.4 mm^3 were selected for implantation. All procedures were performed in sterile conditions. Such pellets can be stored frozen at −20° C. for several days without loss of bioactivity. […] The eyes were exposed, and the maximum vessel length (VL) of the neovascularization zone, extending from the base of the limbal vascular plexus toward the pellet, was measured. […] The contiguous circumferential zone of neovascularization (CN) was measured in clock hours with a 360° reticule (where 30° of arc equals 1 clock hour).

[2] = test system: laser-induced CNV; assay: Laser-induced choroidal neovascularization (CNV) assay; assay type: in vivo, brown Norway rats; details: 1 μg/2 ul in DMSO per eye, fluorescein angiography
Source text: Male rats (brown Norway rats, purchased from BioLASCO Co., Taiwan) were used. CNV lesions were induced in rat eyes by laser photocoagulation. Briefly, after the rats were anesthetized, their pupils were dilated with 1% tropicamide. A piece of 18×24 mm^2 standard cover glass served as a contact lens for application of photocoagulation. Argon laser irradiation was delivered through a slit lamp. Laser parameters were set as follows: spot size of 50 μm; power of 120 mW; and exposure duration of 0.1 second. An attempt was made to break Bruch's membrane, as clinically evidenced by central bubble formation, with or without intraretinal or choroidal hemorrhage. Four to six lesions were created between the major retinal vessels in each fundus. One day prior to laser treatment, animals received bilateral intravitreal injection of 2 ul JC-5 (1 ug/eye, N=6) or 2 ul vehicle (DMSO, N=6). Fourteen days later, a self-retaining eye speculum was placed in the eye to facilitate administration. […] Rats were analyzed under general anesthesia after dilation of the pupil and subsequent intraperitoneal injection of 0.5 ml of 2.5% fluorescein sodium (Alcon, […], Germany). […] For quantitative analysis of fluorescein leakage, the area of fluorescein leakage, determined as area of hyperfluorescence in which no normal retinal blood vessels were observed, was measured for each burn using ImageJ software (NIH, USA).

[3] = test system: human umbilical vein endothelial cells (HUVEC); assay: Inhibition of HUVEC net structure (tube) formation on ECM/Matrigel; assay type: cell-based; details: group without drug = 100%, read-out: 50% inhibiting concentration (IC50) for inhibiting tube formation
Procedure: The lyophilized powder was dissolved in an appropriate solvent and an in vitro anti-angiogenesis was performed thereto. The ability of the extract for inhibiting net structure formation of human umbilical vein endothelial cells (HUVEC) in extracellular matrix (ECM) or growth factor reduced Matrigel was analyzed, and the forming level of the tube structure thereof was integrated to be used as an indicator for quantification.
Furthermore, by using Matrigel (BD, Cat. No. 356231) as a matrix and observing the state of human umbilical vein endothelial cells (HUVECs) constructing a net structure on the matrix, state of JC-5 (yatein) inhibiting the formation of HUVEC net structure was analyzed. […] The total length of the net structure was calculated through NIS element image analysis software (Nikon; Agent: Lin Trading Co., Ltd. Taiwan), wherein by using the total length of a net structure formed from a group without a drug addition as 100%, the state of JC-5 inhibiting the formation of HUVEC net structure was analyzed.
By using Matrigel (BD, Cat. No. 356231) as a matrix and observing the state of human umbilical vein endothelial cells (HUVECs) constructing a net structure on the matrix, the states of the crude extract (CBT-143-S) and the fractional extract (CBT-143-S-F6F7) inhibiting the formation of HUVEC net structure were analyzed. […]

[4] = test system: Hep-3B conditional medium (CM)-induced angiogenesis; assay: Matrigel plugs assay, in vivo Hep-3B conditional medium-induced angiogenesis; set-up: species or system BALB/c mice; details: orally administered every day 30 mg/kg/day, 14 days
Procedure: Through a subcutaneous injection to BALB/c mice to form Matrigel plugs, an evaluation was made of whether a test substance was capable of inhibiting angiogenesis induced by vascular endothelial growth factor or Hep-3B conditional medium (CM).
Matrigel is extracted from the Engelbreth-Holm-Swarm (EHS) mouse sarcoma and contains rich extracellular matrix proteins and contains various factors need by vascular growth. In a condition of room temperature and 37° C., Matrigel is capable of polymerize as a solid gel from, and can provide a better growth environment for vascular endothelial cells.
Matrigel and vascular endothelial growth factors (FGFb+VEGF) or Hep-3B conditional medium (CM) were mixed, and then a test substance was added thereto and mixed. […]
(c) Hemoglobin content in Matrigel was quantified by a QuantiChrom™ Hemoglobin Assay Kit (DIHB-250) to evaluate the amount of neo-blood vessels in Matrigel.
After subcutaneous injection to BALB/c mice for 14 days, the Matrigel plugs in the subcutaneous tissue of the mouse was taken out and equal amount of dispase was added therein to form a mixture and reacted at 37° C. for 16 hours to dissolve intercellular substance gel. […] After the supernatant was reacted with the reagent for 5 minutes, the optical density (O.D.) at 400 nm therefrom was determined. […]

[5] = test system: growth factor (FGFb+VEGF)-induced angiogenesis; assay: Matrigel plugs assay, in vivo growth factor-induced angiogenesis; set-up: species or system BALB/c mice; details: orally administered every day 30 mg/kg/day, 14 days
[6] = test system: PBMCs; assay: Toxicity test for normal cells, PBMCs (Alamarblue cell viability assay); assay type: cell-based; details: PBMC, 72 hours incubation, read-out: IC50 of a test drug for PBMCs
Procedure: In order to investigate whether the inhibiting effects mentioned above of the crude extract (CBT-143-S) and the fractional extract (CBT-143-S-F6F7) are due to the toxicity thereof or not, cell viability assay for normal cells, PBMCs, and growth inhibition assays for HUVECs were performed to the crude extract (CBT-143-S) and the fractional extract (CBT-143-S-F6F7), and a commercial clinical drug, sorafenib, were used for comparison as a reference.
Alamarblue is a plant dye that is usually blue. The dye decomposes during cell proliferation and reduces from blue to pink, and a rise in O.D. at 570 nm can be determined. Conversely, the more dead cells there are, the lower the O.D. value is determined to be.
PBMC cells (1×10^5 cells/well) were inoculated in a 96-well plate, and the crude extract (CBT-143-S) and the fractional extract (CBT-143-S-F6F7) samples, etc. with different concentrations (300, 100, 30, 10, 3 and 1 μg/mL) were added to the plate. After incubating for 72 hours, Alamarblue was added to the plate and incubated at 37° C. for 24 hours, and then the O.D. at 570 nm/600 nm thereof was determined by an ELISA reader. After that, the obtained O.D. values were substituted into the formal calculation as follows: […]

| SMILES | neovascular response in implanted cornea [1] | CNV lesions areas compared to DMSO-treated vehicles ([2]; intravitreal, day 7 and day 14) | fluorescent dye uptake and extent of CNV [2] | IC50 [3] | hemoglobin concentration of the Matrigel plug [4] | hemoglobin concentration of the Matrigel plug [5] | IC50 [6] |
| --- | --- | --- | --- | --- | --- | --- | --- |
| COc1cc(C[C@H]2C(=O)OC[C@@H]2Cc2ccc3c(c2)OCO3)cc(OC)c1OC [JC-5, yatein] | inhibited | significantly decreased | less | 0.335 µM |  |  |  |
| CNC(=O)c1cc(Oc2ccc(NC(=O)Nc3ccc(Cl)c(C(F)(F)F)c3)cc2)ccn1 [Sorafenib, sorafenib] |  |  |  |  | 25.05 ± 17.59 mg/dL | 27.09 ± 5.88 mg/dL | 10.8 ± 0.95 µM |
